Read-outs that look alike come from different tables or passages of the source.
Tested on: cancer cells
Assay: MTS assay: inhibition of cell growth (formazan absorbance at 492 nm after 72 hours with test compound)
Format: cell-based
Conditions: inhibition class
Method: Cells were maintained at 37° C., 5% CO2 in DMEM media supplemented with 1% fetal bovine serum, penicillin/streptomycin and fungizone (Invitrogen). Cells were seeded into 96-well tissue culture plates at 3000 per well and cultured at 37° C. for 18 hours. Test compounds were dissolved and diluted to 300× in DMSO then diluted 1:40 in DMEM. Cells were incubated with test compounds for 72 hours followed by incubation with tetrazolium compound (3-(4,5-dimethylthiazol-2-yl)-5-(3-carboxymethoxyphenyl)-2-(4-sulfophenyl)-2H-tetrazolium, inner salt; MTS) and the electron coupling reagent, phenazine methosulfate (PMS) for 4 hours. […] The ability of compounds to inhibit cell growth in this assay is correlated with the reduction of dehydrogenase enzyme activity found in metabolically active cells. The measurement of the absorbance of the formazan was assessed using an ENVISION™ (Perkin Elmer) microplate reader at 492 nm. The calculated IC50 value is the concentration of the test compound that causes a 50% decrease in the absorbance. […] A=>79% inhibition, B=>50 to 79% inhibition, C=<50% inhibition.

[1] = Homo sapiens, DLD-1 cells, read-out: DLD-1, MTS 72 hours at 10 uM
[2] = Homo sapiens, KATO III cells, read-out: KATO III, MTS 72 hours at 10 uM
[3] = Homo sapiens, MDA-MB-231 cells, read-out: MDA-MB-231, MTS 72 hours at 10 uM
[4] = Homo sapiens, NCI-H1299 cells, read-out: NCI-H1299, MTS 72 hours at 10 uM
[5] = Homo sapiens, PC-3 cells, read-out: PC-3, MTS 72 hours at 10 uM
[6] = PACA-2 cells, read-out: PACA-2, MTS 72 hours at 10 uM

| Compound | inhibition at 10 µM [1] [%] | inhibition at 10 µM [2] [%] | inhibition at 10 µM [3] [%] | inhibition at 10 µM [4] [%] | inhibition at 10 µM [5] [%] | inhibition at 10 µM [6] [%] |
| --- | --- | --- | --- | --- | --- | --- |
| CN(C)CCN(C)c1nc2c3c(n[nH]c3n1)CCN2Cc1ccccc1 [Compound 23, N-(6-benzyl-2,6,7,8-tetrahydro-1,2,3,5,6-pentaazaacenaphthylen-4-yl)-N,N′,N′-trimethylethane-1,2-diamine] | < 50 | < 50 | 50 to 79 | < 50 | > 79 | < 50 |
| COc1ccc(CN2CCN(c3nc4c5c(n[nH]c5n3)CCN4Cc3ccccc3)CC2)cc1 [Compound 24, 6-benzyl-4-[4-(4-methoxybenzyl)piperazin-1-yl]-2,6,7,8-tetrahydro-1,2,3,5,6-pentaazaacenaphthylene] | < 50 | < 50 | < 50 | < 50 | < 50 | < 50 |
| c1ccc(CN2CCc3n[nH]c4nc(NCCCN5CCOCC5)nc2c34)cc1 [Compound 25, 6-benzyl-N-(3-morpholin-4-ylpropyl)-2,6,7,8-tetrahydro-1,2,3,5,6-pentaazaacenaphthylen-4-amine] | < 50 | < 50 | < 50 | < 50 | < 50 | < 50 |
| c1ccc(CN2CCc3n[nH]c4nc(NCCc5c[nH]c6ccccc56)nc2c34)cc1 [Compound 26, 6-benzyl-N-[2-(1H-indol-3-yl)ethyl]-2,6,7,8-tetrahydro-1,2,3,5,6-pentaazaacenaphthylen-4-amine] | < 50 | < 50 | < 50 | < 50 | < 50 | < 50 |
| Cc1cccc(N2CCN(c3nc4c5c(n[nH]c5n3)CCN4Cc3ccccc3)CC2)n1 [Compound 27, 6-benzyl-4-[4-(6-methylpyridin-2-yl)piperazin-1-yl]-2,6,7,8-tetrahydro-1,2,3,5,6-pentaazaacenaphthylene] | < 50 | < 50 | < 50 | < 50 | < 50 | < 50 |
| Brc1cccc(CCNc2nc3c4c(n[nH]c4n2)CCN3Cc2ccccc2)c1 [Compound 28, 6-benzyl-N-[2-(3-bromophenyl)ethyl]-2,6,7,8-tetrahydro-1,2,3,5,6-pentaazaacenaphthylen-4-amine] | < 50 | > 79 | > 79 | > 79 | > 79 | < 50 |
| c1ccc(CN2CCc3n[nH]c4nc(N5CCN(Cc6ccccn6)CC5)nc2c34)cc1 [Compound 29, 6-benzyl-4-[4-(pyridin-2-ylmethyl)piperazin-1-yl]-2,6,7,8-tetrahydro-1,2,3,5,6-pentaazaacenaphthylene] | < 50 | < 50 | < 50 | < 50 | < 50 | < 50 |
| c1ccc(CN2CCc3n[nH]c4nc(NCCc5cccnc5)nc2c34)cc1 [Compound 30, 6-benzyl-N-(2-pyridin-3-ylethyl)-2,6,7,8-tetrahydro-1,2,3,5,6-pentaazaacenaphthylen-4-amine] | 50 to 79 | 50 to 79 | 50 to 79 | < 50 | < 50 | < 50 |
| c1ccc(CN2CCc3n[nH]c4nc(NCc5ccc6c(c5)OCO6)nc2c34)cc1 [Compound 31, N-(1,3-benzodioxol-5-ylmethyl)-6-benzyl-2,6,7,8-tetrahydro-1,2,3,5,6-pentaazaacenaphthylen-4-amine] | < 50 | < 50 | < 50 | < 50 | < 50 | < 50 |
| COc1ccc(CCNc2nc3c4c(n[nH]c4n2)CCN3Cc2ccccc2)cc1 [Compound 32, 6-benzyl-N-[2-(4-methoxyphenyl)ethyl]-2,6,7,8-tetrahydro-1,2,3,5,6-pentaazaacenaphthylen-4-amine] | > 79 | > 79 | > 79 | > 79 | > 79 | > 79 |

Reference: patent US8343983B2, “Substituted pyrazolo-pyrimidine compounds” (ArQule, Inc., priority 2009, dated 2013)
